The text below walks through data of US20260078103A1, “ISOQUINOLONES AS PI3K INHIBITORS” (OnKure, Inc., priority 2022, published 2026).

Holding throughout (format): cell-based
The test system of test [1] is phosphorylation of AKT (pAKT) in SKBR3 cells express WT PI3Ka. Description: In vitro cell pAKT (Ser473) HTRF, SKBR3 cells. The note with it: cellular pAKT. The gist of the method:
(§1)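 pAKT (Ser473) was quantified by HTRF in lysates from cells exposed 6 h at 37 °C to 10-point compound series, with T47D in insulin-supplemented RPMI/10% FBS and SKBR3 in McCoy's 5a/10% FBS. Controls: 0.1% DMSO (high) and 10 uM alpelisib (low). IC50 from sigmoidal curve fitting.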
A general note: In TR-FRET formats the signal depends on donor and acceptor labels being close together.

Test [2] deals with T47D cells expressing mutant PI3Ka (H1047R). The test can be described thus: In vitro cell proliferation, T47D cells (CellTiter-Glo). The note with it: inhibition of proliferation, read-out: Avg T-47D EC50. Put shortly: (§2)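 T47D cells in RPMI/10% FBS/insulin (0.2 units/mL) or SKBR3 in McCoys 5a/10% FBS, 1,500 cells/well, grown 72 h at 37 °C with 10-point compound dilutions. CellTiter-Glo luminescence; % inhibition normalised to 0.1% DMSO and 10 uM Alpelisib, EC50 from four-parameter curve fit.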
In general terms: Cellular ATP, detected with luciferase, serves as a proxy for viable cell number.

In test [3] the test system is SKBR3 cells express WT PI3Ka. The test can be described thus: In vitro cell proliferation, SKBR3 cells (CellTiter-Glo). The note with it: inhibition of proliferation. Put shortly: as §2
Test [4] concerns phosphorylation of AKT (pAKT) in T47D cells expressing mutant PI3Ka (H1047R). Description: In vitro cell pAKT (Ser473) HTRF, T47D cells. The note with it: cellular pAKT, T47D cells, mutant PI3Ka (H1047R), 6 hours, read-out: Avg T-47D IC50. Put shortly:
as §1

Like-named read-outs stand apart in the source and are kept apart here.

As a reminder, the IC50 is the midpoint of a concentration-inhibition curve. One may read the EC50 as the concentration that produces a half-maximal response. With `Cc1cc([C@@H](C)Nc2ccccc2C(=O)O)c2cc(C3CC3)n(C)c(=O)c2c1` [Example 43, (R)-2-((1-(3-cyclopropyl-2,7-dimethyl-1-oxo-1,2-dihydroisoquinolin-5-yl)ethyl)amino)benzoic acid], the IC50 in test [1] (Homo sapiens, SK-BR-3, 6 h) is greater than 15 µM; in test [4] (Homo sapiens, T47D, 6 h) it was 1 to 500 nM. Also, the EC50 is 1 to 500 nM in test [2] (Homo sapiens, T47D, 72 h) and greater than 15 µM in test [3] (Homo sapiens, SK-BR-3, 72 h).

Consider `CCON1CC2CCC(C1)N2c1cc2c([C@@H](C)Nc3ccccc3C(=O)O)cc(F)cc2c(=O)n1C` [Example 44, 2-(((1R)-1-(3-(3-ethoxy-3,8-diazabicyclo[3.2.1]octan-8-yl)-7-fluoro-2-methyl-1-oxo-1,2-dihydroisoquinolin-5-yl)ethyl)amino)benzoic acid], for which the 50% inhibitory concentration (IC50) in test [1] (Homo sapiens, SK-BR-3, 6 h) was in the range of 2 to 15 µM; in test [4] (Homo sapiens, T47D, 6 h) it was 1 to 500 nM. Besides, the EC50 in test [2] (Homo sapiens, T47D, 72 h) was in the range of 1 to 500 nM; in test [3] (Homo sapiens, SK-BR-3, 72 h), 2 to 15 µM.

For the compound `C[C@@H](Nc1ccccc1C(=O)O)c1cc(F)cc2c(=O)n(C)c(-c3cnc(C4(C5CC5)CC4)nc3)cc12` [Example 47, (R)-2-((1-(3-(2-([1,1′-bi(cyclopropan)]-1-yl)pyrimidin-5-yl)-7-fluoro-2-methyl-1-oxo-1,2-dihydroisoquinolin-5-yl)ethyl)amino)benzoic acid], the IC50 is greater than 15 µM in test [1] (Homo sapiens, SK-BR-3, 6 h) and 1 to 500 nM in test [4] (Homo sapiens, T47D, 6 h). The EC50 in test [2] (Homo sapiens, T47D, 72 h) was 1 to 500 nM; in test [3] (Homo sapiens, SK-BR-3, 72 h), greater than 15 µM.

On to `C[C@@H](Nc1ccccc1C(=O)O)c1cc(F)cc2c(=O)n(C)c(-c3cnc(Oc4cnn(C(F)F)c4)c(F)c3)cc12` [Example 48, (R)-2-((1-(3-(6-((1-(difluoromethyl)-1H-pyrazol-4-yl)oxy)-5-fluoropyridin-3-yl)-7-fluoro-2-methyl-1-oxo-1,2-dihydroisoquinolin-5-yl)ethyl)amino)benzoic acid], for which the 50% inhibitory concentration (IC50) in test [1] (Homo sapiens, SK-BR-3, 6 h) was greater than 15 µM; in test [4] (Homo sapiens, T47D, 6 h) it was 1 to 500 nM. For the same compound, the EC50 is 500 to 2000 nM in test [2] (Homo sapiens, T47D, 72 h) and greater than 15 µM in test [3] (Homo sapiens, SK-BR-3, 72 h).

As to `Cc1cc(C(C)Nc2ccccc2C(=O)O)c2cc(N3CC(Cl)C3)n(C)c(=O)c2c1` (stereo not drawn) [Example 55], the half-inhibitory concentration (IC50) in test [1] (Homo sapiens, SK-BR-3, 6 h) is greater than 15 µM; in test [4] (Homo sapiens, T47D, 6 h), 1 to 500 nM. The EC50 in test [2] (Homo sapiens, T47D, 72 h) is 500 to 2000 nM; in test [3] (Homo sapiens, SK-BR-3, 72 h), greater than 15 µM.

Regarding `Cc1cc(C(C)Nc2ccccc2C(=O)O)c2cc(N3CC4(C3)CC(F)(F)C4)n(C)c(=O)c2c1` (stereo not drawn) [Example 56], the IC50 is greater than 15 µM in test [1] (Homo sapiens, SK-BR-3, 6 h) and 500 to 2000 nM in test [4] (Homo sapiens, T47D, 6 h). Also, the EC50 in test [2] (Homo sapiens, T47D, 72 h) was 2000 to 15000 nM; in test [3] (Homo sapiens, SK-BR-3, 72 h) it was greater than 15 µM.

In the case of `Cc1cc(C(C)Nc2ccccc2C(=O)O)c2cc(N3CC4(CC(C(F)(F)F)C4)C3)n(C)c(=O)c2c1` (stereo not drawn) [Example 57], the IC50 in test [1] (Homo sapiens, SK-BR-3, 6 h) is greater than 15 µM; in test [4] (Homo sapiens, T47D, 6 h), 1 to 500 nM. For the same compound, the concentration giving a half-maximal response (EC50) in test [2] (Homo sapiens, T47D, 72 h) was 2000 to 15000 nM; in test [3] (Homo sapiens, SK-BR-3, 72 h) it was greater than 15 µM.

Take `Cc1cc(C(C)Nc2ccccc2C(=O)O)c2cc(N3CCn4c(C)nnc4C3)n(C)c(=O)c2c1` (stereo not drawn) [Example 58]: the IC50 was greater than 15 µM in test [1] (Homo sapiens, SK-BR-3, 6 h) and greater than 15000 nM in test [4] (Homo sapiens, T47D, 6 h). Moreover, the 50% effective concentration (EC50) in test [2] (Homo sapiens, T47D, 72 h) was greater than 15000 nM; in test [3] (Homo sapiens, SK-BR-3, 72 h), greater than 15 µM.

For the compound `Cc1cc(C(C)Nc2ccccc2C(=O)O)c2cc(N3CCN(C)CC3)n(C)c(=O)c2c1` (stereo not drawn) [Example 59], the IC50 in test [1] (Homo sapiens, SK-BR-3, 6 h) was greater than 15 µM; in test [4] (Homo sapiens, T47D, 6 h), 500 to 2000 nM. The half-maximal effective concentration (EC50) is 500 to 2000 nM in test [2] (Homo sapiens, T47D, 72 h) and greater than 15 µM in test [3] (Homo sapiens, SK-BR-3, 72 h).

As for `Cc1cc(C(C)Nc2ccccc2C(=O)O)c2cc(N3CCN(CC(F)(F)F)CC3)n(C)c(=O)c2c1` (stereo not drawn) [Example 61], the IC50 is greater than 15 µM in test [1] (6 hours) and 1 to 500 nM in test [4]. Moreover, the 50% effective concentration (EC50) is 500 to 2000 nM in test [2] (72 hours) and greater than 15 µM in test [3] (72 hours).

Turning to `Cc1cc(C(C)Nc2ccccc2C(=O)O)c2cc(N3CCC4(CCCC4)CC3)n(C)c(=O)c2c1` (stereo not drawn) [Example 62], the half-maximal inhibitory concentration (IC50) in test [1] (Homo sapiens, SK-BR-3, 6 h) is greater than 15 µM; in test [4] (Homo sapiens, T47D, 6 h), 500 to 2000 nM. The EC50 in test [2] (Homo sapiens, T47D, 72 h) was 500 to 2000 nM; in test [3] (Homo sapiens, SK-BR-3, 72 h) it was greater than 15 µM.

In the case of `Cc1cc(C(C)Nc2ccccc2C(=O)O)c2cc(N3CCC4(CCC4)CC3)n(C)c(=O)c2c1` (stereo not drawn) [Example 63], the IC50 was greater than 15 µM in test [1] (Homo sapiens, SK-BR-3, 6 h) and 1 to 500 nM in test [4] (Homo sapiens, T47D, 6 h). For the same compound, the EC50 in test [2] (Homo sapiens, T47D, 72 h) is 2000 to 15000 nM; in test [3] (Homo sapiens, SK-BR-3, 72 h) it was greater than 15 µM.
